{
  "source": "patent US8188287B2",
  "about": "“Piperidyl acrylamide antagonists of CCR2” (Janssen Pharmaceutica N.V., priority 2008, dated 2012)",
  "data": [
    {"target": "T1, CCR2 (Homo sapiens, UniProt P41597)", "T1 construct": "host or cells: THP-1 (human monocytic cell line)", "T1 sequence (P41597 whole entry)": "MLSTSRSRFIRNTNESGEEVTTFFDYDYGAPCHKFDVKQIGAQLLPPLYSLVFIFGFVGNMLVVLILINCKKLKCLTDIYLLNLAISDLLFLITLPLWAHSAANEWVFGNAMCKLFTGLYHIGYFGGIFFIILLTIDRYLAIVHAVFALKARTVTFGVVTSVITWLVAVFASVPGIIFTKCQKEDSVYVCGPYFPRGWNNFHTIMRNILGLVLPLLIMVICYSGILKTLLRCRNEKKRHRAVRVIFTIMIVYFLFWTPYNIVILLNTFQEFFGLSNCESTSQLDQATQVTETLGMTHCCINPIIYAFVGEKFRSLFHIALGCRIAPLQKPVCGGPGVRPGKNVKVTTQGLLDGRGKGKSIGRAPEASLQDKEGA", "assay": "MCP-1 Receptor Binding Assay in THP-1 Cells", "conditions": "125I labeled MCP-1 0.5 nM, 2 hours at 30° C., read-out: Inhibition of MCP-1 Binding IC50", "protocol": "(§1) MCP-1 Receptor Binding Assay in THP-1 Cells\n(§2) Human monocytic cell line THP-1 cells were obtained from American Type Culture Collection (Manassas, Va., USA). The THP-1 cells were grown in RPMI-1640 (RPMI: Roswell Park Memorial Institute Medium-cell culture growth media) supplemented with 10% fetal bovine serum in a humidified 5% CO2 atmosphere at 37° C. The cell density was maintained […].\n(§3) THP-1 (cells were incubated with 0.5 nM ^125I labeled MCP-1 (Perkin-Elmer Life Sciences, Inc. Boston, Mass.) in the presence of varying concentrations of either unlabeled MCP-1 (R & D Systems, Minneapolis, Minn.) or test compound for 2 hours at 30° C. in a 96 well plate. Cells were then harvested onto a filter plate, dried, and 20 μL of Microscint 20 was added to each well. Plates were counted in a TopCount NXT, Microplate Scintillation & Luminescence Counter (Perkin-Elmer Life Sciences, Inc. Boston, Mass.). Blank values (buffer only) were subtracted from all values and drug treated values were compared to vehicle treated values. 1 μM cold MCP-1 was used for nonspecific binding.\n(§4) Table 1 lists IC50 values for inhibition of MCP-1 binding to CCR2 obtained for test compounds of the invention. Where an IC50 value was not obtained for a particular compound, the percent inhibition is provided at a test concentration of 25 μM. TABLE 1 Inhibition of MCP-1 Binding IC50 (μM)", "units": {"IC50": "µM"}, "values": [
      {"smiles": "O=C(/C=C/c1cc(F)c(F)c(F)c1)N1CCC(NN2CCC(c3c[nH]c4ccccc34)CC2)CC1", "note": "[Compound 3a, 1-{4-[4-(1H-Indol-3-yl)-piperidin-1-ylamino]-piperidin-1-yl}-3-(3,4,5-trifluoro-phenyl)-propenone]", "IC50": 1.6},
      {"smiles": "O=C(O)C(NN1CCC(c2c[nH]c3ccccc23)CC1)C1CCN(C(=O)/C=C/c2cc(F)c(F)c(F)c2)CC1", "note": "(racemic) [Compound 5d, [4-(1H-Indol-3-yl)-piperidin-1-ylamino]-{1-[3-(3,4,5-trifluoro-phenyl)-acryloyl]-piperidin-4-yl}-acetic acid]", "IC50": 0.64},
      {"smiles": "O=C(/C=C/c1cc(F)c(F)c(F)c1)N1CCC(N(CC(O)CO)N2CCC(c3c[nH]c4ccccc34)CC2)CC1", "note": "(stereo not shown) [Compound 4d, 1-(4-{(2,3-Dihydroxy-propyl)-[4-(1H-indol-3-yl)-piperidin-1-yl]-amino}-piperidin-1-yl)-3-(3,4,5-trifluoro-phenyl)-propenone]", "IC50": 1.4}
    ]},
    {"target": "T1, CCR2", "assay": "MCP-1 Receptor Binding Assay in THP-1 Cells", "conditions": "test concentration of 25 μM, 125I labeled MCP-1 0.5 nM", "protocol": "as §1, §2, §3, §4", "units": {"Inhibition of MCP-1 Binding Inh (%)": "%"}, "values": [
      {"smiles": "O=C(/C=C/c1cc(F)c(F)c(F)c1)N1CCC(N(Cc2ncc[nH]2)N2CCC(c3c[nH]c4ccccc34)CC2)CC1", "note": "[Compound 4e, 1-(4-{(1H-Imidazol-2-ylmethyl)-[4-(1H-indol-3-yl)-piperidin-1-yl]-amino}-piperdin-1-yl)-3-(3,4,5-trifluoro-phenyl)-propenone]", "Inhibition of MCP-1 Binding Inh (%)": 20},
      {"smiles": "CCN(C1CCN(C(=O)/C=C/c2cc(F)c(F)c(F)c2)CC1)N1CCC(c2c[nH]c3ccccc23)CC1", "note": "[Compound 4b, 1-(4-{Ethyl-[4-(1H-indol-3-yl)-piperidin-1-yl]-amino}-piperidin-1-yl)-3-(3,4,5-trifluoro-phenyl)-propenone]", "Inhibition of MCP-1 Binding Inh (%)": 34},
      {"smiles": "CN(C1CCN(C(=O)/C=C/c2cc(F)c(F)c(F)c2)CC1)N1CCC(c2c[nH]c3ccccc23)CC1", "note": "[Compound 4a, 1-(4-{[4-(1H-Indol-3-yl)-piperidin-1-yl]-methyl-amino}-piperidin-1-yl)-3-(3,4,5-trifluoro-phenyl)-propenone]", "Inhibition of MCP-1 Binding Inh (%)": 59},
      {"smiles": "CC(C)CN(C1CCN(C(=O)/C=C/c2cc(F)c(F)c(F)c2)CC1)N1CCC(c2c[nH]c3ccccc23)CC1", "note": "[Compound 4c, 1-(4-{[4-(1H-Indol-3-yl)-piperidin-1-yl]-isobutyl-amino}-piperidin-1-yl)-3-(3,4,5-trifluoro-phenyl)-propenone]", "Inhibition of MCP-1 Binding Inh (%)": 0}
    ]}
  ]
}
